Data set [1] relates to α-tubulin acetylation in HeLa cells. The data set is described as follows: Acetyl-α-tubulin sandwich ELISA in HeLa cells. The format is cell-based, human. To be noted: 25 μM, 48 h. Here is the method:
The acetyl-α-tubulin sandwich ELISA Kit (Pathscan® #7204, Cell Signalling) was used to determine tubulin acetylation levels, and Western blotting was used to evaluate histone H4 acetylation, both methods applied to lysates of treated and non-treated HeLa cells (ATCC CCL-2). Cells were cultured in DMEM medium, 4.5 g/L glucose, L-glutamine (Invitrogen), supplemented with 10% heat-inactivated fetal bovine serum (FBS, Biowest), 100 units/mL penicillin, and 100 μg/mL streptomycin, and 1% non-essential amino acids (Invitrogen) at 37 °C with 5% CO2. Prior to ELISA experiments, cells were seeded into 6-well plates at 150,000 cells/well and transfected with the HDAC6-GFP construct (pEGFP.N1-HDAC6, Addgene)[58], using the Lipofectamine 2000 reagent (Invitrogen). Cells were then treated with test compounds, standards or vehicle (0.5% DMSO in culture medium) for 48 h. After the incubation time, cells were washed with cold DPBS (Invitrogen) and lysates were obtained by recovering cells in cold lysis buffer provided in the ELISA kit, supplemented with a protease inhibitor tablet (SigmaFast, Sigma Aldrich). Briefly, cells were harvested in DPBS and centrifuged. The cell pellet was suspended in 100 μL lysis buffer, vortexed, and kept on melting ice for 30 min. Lysates were then obtained by recovering the supernatant after a centrifugation step of 10 min at 11,000 g, 4 °C. Protein concentration was determined by fluorimetry using the Qubit protein assay kit (Invitrogen). Cell lysates were tested at 1 mg/mL following the instructions provided by the ELISA kit manufacturer. For the Western blotting, cells were seeded into 100 mm Petri dishes and treated for 6 h. After the incubation time, cells were washed with cold DPBS (Invitrogen) supplemented with a protease inhibitor tablet (Sigma Fast, Sigma Aldrich), and lysates were obtained by recovering cells in 100 μL cold lysis buffer (10 mM Hepes pH 7.9, 1.5 mM MgCl2, 10 mM KCl, 0.5 mM DTT, 1.5 mM PMSF, 0.2M HCl) the same way as described above. […]
For orientation: An ELISA detects its analyte on a solid surface through an enzyme-linked reagent.

Another data set in a line: Cytotoxicity XTT, HeLa. It is filed as cell-based, human. Particulars: human, HeLa cells, mean ± SD of 3 independent experiments in triplicate, read-out: cytotoxic IC50 HeLa. How it is done: (§1) HeLa and HEK 293 cells (ATCC CRL-1573) were cultured as described above and seeded into 96-well plates at 400 cells/well. Test and standard compounds were added to plate wells in triplicate (0.05% DMSO in culture medium) in a range of six concentrations. Following 72 h of incubation, […] of an activated XTT solution was added to the cells (1 mg/mL). The absorbance was measured at 450 nm after 2 h incubation at 37 °C. The growth of the compound-treated cells was compared with the growth of vehicle-treated control cells. IC50 values were calculated with GraphPad Prism 6.0.

Data set [2] in a line: Cytotoxicity XTT, HEK 293. Particulars: human, HEK 293 cells (ATCC CRL-1573), mean ± SD of 3 independent experiments in triplicate, read-out: cytotoxic IC50 HEK 293. The format is cell-based. How it is done: as §1
In general terms: Tetrazolium assays rely on reduction of a dye to a coloured formazan, in cell work by metabolically active cells.

Data set [3] relates to HDAC6. Particulars: cited from earlier work.
In another data set the test system is HeLa cells. The data set is described as follows: Cytotoxicity XTT, HeLa. The format is cell-based, human. Particulars: 72 h, mean ± SD of 3 independent experiments in triplicate, read-out: cytotoxic IC50 HeLa. How it is done: as §1
The next data set relates to HEK 293 cells. The data set is described as follows: Cytotoxicity XTT, HEK 293. It is filed as cell-based. Particulars: 72 h, mean ± SD of 3 independent experiments in triplicate, read-out: cytotoxic IC50 HEK 293. Here is the method:
as §1

The target of data set [4] is T1, HDAC6 (Homo sapiens, UniProt Q9UBN7).
T1 construct: purchased Sigma Aldrich or Reaction Biology Corporation
T1 sequence (Q9UBN7 1-1215): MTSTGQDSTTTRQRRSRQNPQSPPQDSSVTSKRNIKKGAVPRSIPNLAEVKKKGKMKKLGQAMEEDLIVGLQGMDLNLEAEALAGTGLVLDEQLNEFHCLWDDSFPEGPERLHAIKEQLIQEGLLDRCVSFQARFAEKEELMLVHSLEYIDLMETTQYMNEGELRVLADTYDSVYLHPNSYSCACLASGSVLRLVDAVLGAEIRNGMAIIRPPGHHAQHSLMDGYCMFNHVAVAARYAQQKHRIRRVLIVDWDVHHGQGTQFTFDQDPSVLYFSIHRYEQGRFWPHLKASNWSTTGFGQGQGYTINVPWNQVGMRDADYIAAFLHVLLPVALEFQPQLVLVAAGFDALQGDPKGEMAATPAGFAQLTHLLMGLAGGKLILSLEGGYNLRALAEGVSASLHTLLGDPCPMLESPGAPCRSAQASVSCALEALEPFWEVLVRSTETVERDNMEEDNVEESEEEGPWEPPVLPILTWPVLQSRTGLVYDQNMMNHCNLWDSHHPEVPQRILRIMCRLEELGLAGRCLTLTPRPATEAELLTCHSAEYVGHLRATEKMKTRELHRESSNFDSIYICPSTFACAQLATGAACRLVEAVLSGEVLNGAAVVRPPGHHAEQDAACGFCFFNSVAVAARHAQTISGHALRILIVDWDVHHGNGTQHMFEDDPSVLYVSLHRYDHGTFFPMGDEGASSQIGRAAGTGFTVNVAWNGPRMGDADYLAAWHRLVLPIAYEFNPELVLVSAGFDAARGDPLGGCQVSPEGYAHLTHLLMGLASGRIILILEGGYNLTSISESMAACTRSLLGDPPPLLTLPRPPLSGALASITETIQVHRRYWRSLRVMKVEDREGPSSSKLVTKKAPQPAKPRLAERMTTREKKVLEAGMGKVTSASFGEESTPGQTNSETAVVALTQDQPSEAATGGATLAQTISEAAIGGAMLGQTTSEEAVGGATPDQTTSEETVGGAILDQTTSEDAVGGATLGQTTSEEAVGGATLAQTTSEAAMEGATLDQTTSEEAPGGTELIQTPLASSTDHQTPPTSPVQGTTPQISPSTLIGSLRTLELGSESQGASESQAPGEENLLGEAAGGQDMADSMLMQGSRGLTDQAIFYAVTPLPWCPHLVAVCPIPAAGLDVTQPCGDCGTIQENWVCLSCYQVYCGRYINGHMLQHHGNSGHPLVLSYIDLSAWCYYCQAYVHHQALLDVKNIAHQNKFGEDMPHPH
The data set is described as follows: In vitro enzymatic assay HDAC6 (Fluor de Lys). It is filed as biochemical. To be noted: 100 µM; mean ± SD (n=3).

A short description of data set [5]: Solubility remarks during testing. Particulars: tested at 100 µM in HDAC assay buffer. It is filed as physicochemical.

On to `CN1CCc2c(c3ccccc3n2Cc2ccc(C(=O)NO)cc2)C1` [Tubastatin A], for which, in data set [1], the tubulin acetylation entry is “able to induce tubulin acetylation”. The IC50 at 72 h is 11200 ± 400 nM in the data set “Cytotoxicity XTT, HeLa” and 2400 ± 600 nM in data set [2]. Further, in the data set on HDAC6 [3], the IC50 is […].

In the case of `CC(/C=C/C(=O)NO)=C\[C@@H](C)C(=O)c1ccc(N(C)C)cc1` [Trichostatin A], the IC50 was 1500 ± 300 nM in the data set with HeLa cells and 300 ± 20 nM in the data set with HEK 293 cells.

As to `CC1(C)Cc2c(c(N3CCOCC3)nc3sc(C(=O)NN)cc23)CO1` [AK-8], the “HDAC6 % of inhibition at 100 µM” value on HDAC6 [4] is recorded as 32.5 ± 8.8%. Moreover, the “solubility remark in HDAC6 screening” value in data set [5] is “Solubility issues”.

By IC50 is commonly meant the point on the concentration scale where inhibition reaches its midpoint.

(Values after PMC4941420, “A Rational Approach for the Identification of Non-Hydroxamate HDAC6-Selective Inhibitors” (Scientific Reports, 2016).)
